The assay deals with wild-type ribosomes. As to the kind of experiment: Antibiotic inhibition of orthogonal sf-gfp translation by wild-type ribosomes in cell-free system. Format: biochemical, E. coli. Conditions: pactamycin 100 μM. As for the experimental part: Ribosomes (wild-type) or oRibo-T (mixed with wild-type ribosomes) were prepared from SQ171fg cells transformed with pAM552 or poRibo-T1, respectively. An orthogonal sf-gfp gene was PCR amplified from the plasmid pT7oGFP using primers […] (SEQ ID NO: 227) and […] (SEQ ID NO: 228). The transcription-translation reaction was carried out in Δ(ribosome, amino acid, tRNA) PURExpress system as described above. The 7.5 μl reactions were supplemented with 18.75 ng DNA template and 7.5 pmol ribosomes and when needed, clindamycin or pactamycin were added to the reactions to the final concentrations of 50 μM or 100 μM respectively.

For the molecule `CC(=O)c1cccc(N[C@H]2[C@H](N)[C@@](NC(=O)N(C)C)([C@H](C)O)[C@@](C)(O)[C@@]2(O)COC(=O)c2c(C)cccc2O)c1` [Pactamycin], the “inhibition of the activity of wild-type ribosomes in the PURE translation system” value is reported as “completely inhibited”.

(Values after patent publication US10590456B2, “Ribosomes with tethered subunits” (Northwestern University, priority 2014, dated 2020).)
